In assay [1] the test system is human iPSC-derived cerebral cortical neural stem cells (hNSCs). The experiment in a line: Neurogenesis and neuronal differentiation of hNSCs (MAP2 immunocytochemistry). It counts as cell-based. As to conditions: 0.1 and 1 μM, 3 or 5 days. As to the method:
Human iPSC-derived cerebral cortical neural stem cells (hNSCs) (Axol Bioscience Inc., UK) were cultured as monolayers at a density of 1.010^4 cells/cm^2 on 100 mm diameter Petri dishes. The cells were collected from their original cryovial, suspended in Plating-XF Medium and plated on Petri dishes coated with SureBondXF 1× working solution prepared in D-PBS (without calcium or magnesium). hNSCs were incubated at 37° C. and 5% CO2 and 24 hours after of incubation, the plating medium was replaced with fresh Neural Expansion-XF Medium supplemented with the growth factors Recombinant Human EGF and Recombinant Human FGF2 (final concentration of 20 ng/mL (1×) of FGF2 and EGF). The cultures were re-fed with fresh Neural Expansion-XF supplemented with EGF and FGF2 every two days. When the hNSCs reached approximately 80% confluence, they were prepared for treatment. […]
Digital Leica LAS AF 2.2.0 software (Live Data Mode system) was used for counting Map2ab+DAPI+ cells. […] For each experimental condition, cells from 3 different tubes were each analyzed in triplicate and 3 frames were collected at 20× magnification. Data were analyzed with GraphPad Prism 6 software, version 6.05 (GraphPad, Inc.) and are expressed as mean±SEM. Statistical differences among groups were determined by two-way ANOVA followed by post hoc Bonferroni tests for comparison among means. […]

Assay [2] concerns sub-chronic PCP-induced deficit in novel object recognition. In words: Novel object recognition (NOR) test after sub-chronic PCP. Particulars: rat dose multiplied by 0.16 (FDA dose conversion guidance). The format is in vivo. The method, then:
Female hooded-Lister rats were used for this experiment. Rats were housed in groups of 5 under standard laboratory conditions under a 12 hr light: dark cycle, with lights on at 0700 hr. Testing was carried out in the light phase. Rats were randomly assigned to two treatment groups and treated with vehicle, n=20 (distilled water, i.p.) or Phencyclidine hydrochloride (PCP), n=100 (2 mg/kg, i.p. twice daily for 7-days). PCP was dissolved in distilled water. This was followed by a 7-day wash out period before the rats were tested following acute treatment with CBD, risperidone or vehicle. […]
Following the 3 minute habituation period, the rats are given two 3 minute trials (T1 and T2) which were separated by a 1 minute inter-trial interval in the home cage during which the objects were changed. Behavior in all trials was recorded on video for subsequent blind scoring. […]
The exploration time(s) of each object (A, B, familiar and novel) in each trial were recorded using two stopwatches and the following factors were calculated: total exploration time of both objects in the acquisition trial, total exploration time of both objects in the retention trial. Habituation of exploratory activity included the exploration time, as measured by the number of lines crossed, for both trials.
All data were assessed for normality using D'Agostino and Pearson normality test. […]

The subject of assay [3] is MES-induced tonic seizures. In words: Maximal electroshock seizure (MES) test. The format is in vivo. Particulars: Mus musculus, ip, i.p. 60 minutes prior to MES, male C57Bl6 mice, sigmoidal curve, constant top, read-out: ED50 protecting 50% of mice against MES-induced tonic seizures. As to the method:
This study was performed using male C57Bl6 mice, weighing between 23.6-31.2 g, which were purchased from a licensed breeder (Charles River, UK). Naïve mice were acclimatized to the procedure room in their home cages, with food and water available ad libitum. Animals were housed in groups of 2-3, in standard caging on a 12 hr/12 hr light-dark cycle. All animals were tail marked and weighed at the beginning of the study. Animals were randomly assigned to vehicle or treatment groups.
The following drugs were used in this study: synthetic CBD (SYN) and botanically derived purified CBD (BOT). The control vehicle used was (1:1:18), which was 5% Ethanol, 5% Kolliphor, 90% saline, and has been used extensively throughout similar seizure tests. All drugs were dissolved in the control vehicle for comparison. Animals were dosed (10 ml/kg) i.p. at 60 minutes prior to the administration of the maximal electroshock seizure (IVIES) test. In addition to the vehicle group, the dosage groups used for each treatment and included doses of 10, 50, 100 (Experiment 1 only), 150 and 200 mg/kg for CBD (SYN) and CBD (BOT). The number of animals in each of these groups were 10 (n=10).
Two separate experiments were undertaken using two different batches of the botanically derived purified CBD. […]
(In general: The maximal electroshock test induces tonic seizures with an electrical stimulus.)

Where two headings read alike, the source gives them in different places.

As a reminder, the ED50 is the dose at which the effect has come halfway, by size or by number of responders.

In the case of `C=C(C)[C@@H]1CCC(C)=C[C@H]1c1c(O)cc(CCCCC)cc1O` [Synthetic CBD, 2-[(1R,6R)-3-Methyl-6-(1-methylethenyl)-2-cyclohexen-1-yl]-5-pentyl-1,3-benzenediol], the “Effect on neurogenesis and neuronal differentiation of hNSCs relative to vehicle-treated cells” value in assay [1] is “did not have a significant effect”. In addition, the “Human equivalent of the rat MED” value in assay [2] turned out to be 1.6 mg/kg/day. For the same compound, the median effective dose (ED50) in assay [3] (Experiment 1) is 77.6 mg/kg; in assay [3] (Experiment 2), 77.4 mg/kg.
